Experimental data published in ChEMBL document CHEMBL1201862, “PubChem BioAssay data set” (2004).
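Growth conditions: 96-well plates. Treatment: test compound, 48 hours, 5 concentrations. Analysis: linear interpolation between bracketing concentrations; unreached endpoints set to highest concentration. GI50 is the concentration that inhibits growth by half.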 Calls of active or inactive are those of the source. Cut-off read from the data, not from the text of the source: active = GI50 up to about 1.1 µM and inactive = higher.

Experiments:
Experiment in all cases: inhibition of tumour cell growth, NCI panel, 48 h
[1] = system: 786-0
[2] = system: A549
[3] = system: ACHN
[4] = system: CAKI-1
[5] = system: CCRF-CEM
[6] = system: COLO 205
[7] = system: DLD-1
[8] = system: DMS-273
[9] = system: HCT-116
[10] = system: HCT-15
[11] = system: HL-60
[12] = system: HOP-18
[13] = system: HOP-62
[14] = system: HOP-92
[15] = system: HT-29
[16] = system: IGROV-1
[17] = system: K562
[18] = system: KM-20L2
[19] = system: KM12
[20] = system: LOX IMVI
[21] = system: LXFL 529
[22] = system: M14
[23] = system: M19-MEL
[24] = system: MOLT-4
[25] = system: Malme-3M
[26] = system: NCI-H226
[27] = system: NCI-H23
[28] = system: NCI-H460
[29] = system: NCI-H522
[30] = system: OVCAR-3
[31] = system: OVCAR-4
[32] = system: OVCAR-5
[33] = system: OVCAR-8
[34] = system: RPMI-8226
[35] = system: RXF 393
[36] = system: SF-268
[37] = system: SF-295
[38] = system: SF-539
[39] = system: SK-MEL-28
[40] = system: SK-MEL-2
[41] = system: SK-MEL-5
[42] = system: SK-OV-3
[43] = system: SN12C
[44] = system: SNB-75
[45] = system: SNB-78
[46] = system: SR
[47] = system: SW-620
[48] = system: TK-10
[49] = system: U-251
[50] = system: UACC-257
[51] = system: UACC-62
[52] = system: UO-31
[53] = system: A498
[54] = system: DMS-114
[55] = system: EKVX
[56] = system: HCC 2998
[57] = system: SNB-19

Measured: GI50

N#CC(NNC(=O)c1ccccc1O)c1ccccc1O (stereo not drawn)
3.85 µM: [10]
inactive: [1] 3.55 µM | [2] 8.69 µM | [3] 2.44 µM | [4] 3.27 µM | [5] 2.06 µM | [6] 33.5 µM | [7] 3.26 µM | [8] 2.38 µM | [9] 4.29 µM | [11] 1.27 µM | [12] 4.65 µM | [13] 8.45 µM | [14] 13.6 µM | [15] 41.4 µM | [16] 2.6 µM | [17] 5.43 µM | [18] 32.8 µM | [19] 5.82 µM | [20] 3.78 µM | [21] 18.6 µM | [22] 5.65 µM | [23] 4.45 µM | [24] 2.23 µM | [25] 10 µM | [26] 3.18 µM | [27] 2.06 µM | [28] 4.85 µM | [29] 8.87 µM | [30] 2.52 µM | [31] 9.64 µM | [32] 27.1 µM | [33] 3.58 µM | [34] 4.03 µM | [35] 12.8 µM | [36] 2.29 µM | [37] 9.23 µM | [38] 4.06 µM | [39] 10.9 µM | [40] 31.3 µM | [41] 8.89 µM | [42] 9.53 µM | [43] 5.27 µM | [44] 18.5 µM | [45] 38.3 µM | [47] 7.66 µM | [48] 68.9 µM | [49] 4.18 µM | [50] 4.06 µM | [51] 2.72 µM | [52] 2.91 µM
active: [46] 0.472 µM

Cc1ccc(S(=O)(=O)N/N=C(\c2nc3ccc(Cl)cc3[nH]c2=O)C(O)c2ccco2)cc1 (stereo not drawn)
> 100 µM: [10]
inactive: [1] > 100 µM | [53] > 100 µM | [2] > 100 µM | [3] > 100 µM | [4] > 100 µM | [5] 7.5 µM | [6] > 100 µM | [7] > 100 µM | [54] 22.3 µM | [8] > 100 µM | [55] > 100 µM | [56] > 100 µM | [9] > 100 µM | [11] 44 µM | [12] > 100 µM | [14] > 100 µM | [15] > 100 µM | [16] > 100 µM | [17] 42.3 µM | [18] > 100 µM | [19] 66.8 µM | [20] > 100 µM | [21] > 100 µM | [22] > 100 µM | [23] > 100 µM | [24] 28.1 µM | [25] > 100 µM | [26] > 100 µM | [27] > 100 µM | [28] > 100 µM | [30] > 100 µM | [31] > 100 µM | [32] > 100 µM | [35] > 100 µM | [36] > 100 µM | [37] > 100 µM | [38] > 100 µM | [39] > 100 µM | [40] > 100 µM | [41] > 100 µM | [57] > 100 µM | [44] > 100 µM | [47] > 100 µM | [48] > 100 µM | [50] > 100 µM | [51] > 100 µM

CC(C)=CC(=O)C/C(=N\NC(N)=S)C(=O)Nc1ccc(Cl)cc1
> 100 µM: [10]
inactive: [1] > 100 µM | [53] > 100 µM | [2] > 100 µM | [3] > 100 µM | [4] > 100 µM | [5] > 100 µM | [6] > 100 µM | [7] > 100 µM | [54] > 100 µM | [8] > 100 µM | [55] > 100 µM | [56] > 100 µM | [9] > 100 µM | [11] > 100 µM | [12] > 100 µM | [15] > 100 µM | [16] > 100 µM | [17] > 100 µM | [18] > 100 µM | [19] > 100 µM | [20] > 100 µM | [21] > 100 µM | [22] > 100 µM | [23] > 100 µM | [24] > 100 µM | [25] > 100 µM | [26] > 100 µM | [27] > 100 µM | [28] > 100 µM | [30] > 100 µM | [31] > 100 µM | [32] > 100 µM | [33] > 100 µM | [34] > 100 µM | [35] > 100 µM | [36] > 100 µM | [37] > 100 µM | [38] > 100 µM | [39] > 100 µM | [40] > 100 µM | [41] > 100 µM | [42] > 100 µM | [43] > 100 µM | [57] > 100 µM | [44] 79.8 µM | [45] > 100 µM | [47] > 100 µM | [48] > 100 µM | [49] > 100 µM | [50] > 100 µM | [51] > 100 µM | [52] > 100 µM

Cc1ccc2c(c1CCCC(C)(C)O)C(=O)C(O)=C(C(C)C)C2=O
41.9 µM: [10]
inactive: [1] > 100 µM | [53] > 100 µM | [2] 50.6 µM | [3] 63 µM | [4] > 100 µM | [5] 32.2 µM | [6] > 100 µM | [7] > 100 µM | [54] 39.1 µM | [8] 95.5 µM | [55] 47.2 µM | [56] > 100 µM | [9] 60.5 µM | [11] 46.6 µM | [12] > 100 µM | [14] > 100 µM | [15] > 100 µM | [16] 90.4 µM | [17] 48.1 µM | [18] > 100 µM | [19] > 100 µM | [21] 62.1 µM | [22] > 100 µM | [23] 96.6 µM | [24] 60.1 µM | [25] > 100 µM | [26] > 100 µM | [27] 59.3 µM | [28] 47.2 µM | [29] > 100 µM | [30] 66.7 µM | [31] > 100 µM | [33] 62.5 µM | [34] 39.1 µM | [35] 53.5 µM | [36] 59.4 µM | [37] 81.7 µM | [38] > 100 µM | [39] > 100 µM | [40] 36.7 µM | [41] > 100 µM | [42] > 100 µM | [43] 78.3 µM | [57] > 100 µM | [44] > 100 µM | [46] 41.2 µM | [47] > 100 µM | [48] > 100 µM | [49] 53.1 µM | [52] 76 µM
